In PMC7613998, “Development of selective inhibitors of phosphatidylinositol 3-kinase C2α” (Nature Chemical Biology, 2022):

Assays:
Test in all cases: biochemical
Design in all cases: SelectScreen Z'-LYTE purified kinase panel, per cent inhibition, mean of two points
AURKB (Aurora B) = AURKB (Aurora B) (Homo sapiens, UniProt Q96GD4); settings: (μM)=Km app
CSK = CSK (Homo sapiens, UniProt P41240); settings: (μM)=Km app
CSNK1D (CK1 delta) = CSNK1D (CK1 delta) (Homo sapiens, UniProt P48730); settings: (μM)=Km app
EGFR (ErbB1) = EGFR (ErbB1) (Homo sapiens, UniProt P00533); settings: (μM)=Km app
IRAK4 = molecular target: T1, IRAK4 (Homo sapiens, UniProt Q9NWZ3); settings: (μM)=Km app
T1 sequence (Q9NWZ3 1-460): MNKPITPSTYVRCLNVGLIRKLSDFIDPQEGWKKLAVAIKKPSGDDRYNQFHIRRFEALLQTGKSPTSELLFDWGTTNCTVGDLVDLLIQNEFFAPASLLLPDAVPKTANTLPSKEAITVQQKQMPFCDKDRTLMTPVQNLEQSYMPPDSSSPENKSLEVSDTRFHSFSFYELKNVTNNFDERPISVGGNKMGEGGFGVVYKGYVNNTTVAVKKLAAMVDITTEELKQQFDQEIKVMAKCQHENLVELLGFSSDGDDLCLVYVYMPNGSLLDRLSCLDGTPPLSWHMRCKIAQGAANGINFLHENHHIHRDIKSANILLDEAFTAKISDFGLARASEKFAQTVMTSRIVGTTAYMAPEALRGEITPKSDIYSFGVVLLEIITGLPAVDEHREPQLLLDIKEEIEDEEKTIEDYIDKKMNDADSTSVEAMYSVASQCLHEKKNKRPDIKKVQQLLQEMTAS

JAK3 = molecular target: T2, JAK3 (Homo sapiens, UniProt P52333); settings: (μM)=Km app
T2 sequence (P52333 1-1124): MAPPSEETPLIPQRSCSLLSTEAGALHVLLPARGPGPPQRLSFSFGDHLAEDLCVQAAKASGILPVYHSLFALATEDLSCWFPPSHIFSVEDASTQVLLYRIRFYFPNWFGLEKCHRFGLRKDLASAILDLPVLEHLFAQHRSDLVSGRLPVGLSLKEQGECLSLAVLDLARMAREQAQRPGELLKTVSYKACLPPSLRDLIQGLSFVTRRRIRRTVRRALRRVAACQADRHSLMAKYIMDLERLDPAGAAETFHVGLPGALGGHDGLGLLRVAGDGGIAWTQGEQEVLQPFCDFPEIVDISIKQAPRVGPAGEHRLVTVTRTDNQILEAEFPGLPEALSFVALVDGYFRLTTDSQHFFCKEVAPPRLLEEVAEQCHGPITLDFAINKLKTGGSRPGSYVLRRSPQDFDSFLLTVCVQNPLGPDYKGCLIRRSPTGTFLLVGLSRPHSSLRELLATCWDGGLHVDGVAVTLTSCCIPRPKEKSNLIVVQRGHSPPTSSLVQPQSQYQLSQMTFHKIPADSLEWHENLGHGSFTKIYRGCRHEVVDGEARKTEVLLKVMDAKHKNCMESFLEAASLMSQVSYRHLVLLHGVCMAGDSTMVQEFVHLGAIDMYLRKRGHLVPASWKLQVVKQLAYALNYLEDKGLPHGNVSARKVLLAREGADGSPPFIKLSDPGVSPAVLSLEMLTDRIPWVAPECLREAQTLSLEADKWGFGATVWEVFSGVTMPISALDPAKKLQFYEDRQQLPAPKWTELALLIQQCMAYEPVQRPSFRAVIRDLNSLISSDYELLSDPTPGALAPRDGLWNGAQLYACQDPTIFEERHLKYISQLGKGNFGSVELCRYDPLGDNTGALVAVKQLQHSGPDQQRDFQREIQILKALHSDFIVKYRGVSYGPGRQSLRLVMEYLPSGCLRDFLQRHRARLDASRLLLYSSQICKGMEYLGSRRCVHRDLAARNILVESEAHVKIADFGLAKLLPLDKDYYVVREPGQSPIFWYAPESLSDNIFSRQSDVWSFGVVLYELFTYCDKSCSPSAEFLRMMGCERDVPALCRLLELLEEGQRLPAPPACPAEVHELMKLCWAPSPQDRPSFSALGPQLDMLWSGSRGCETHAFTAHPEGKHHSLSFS

MAPK14 (p38 alpha) = MAPK14 (p38 alpha) (Homo sapiens, UniProt Q16539); settings: (μM)=100
PAK2 (PAK65) = PAK2 (PAK65) (Homo sapiens, UniProt Q13177); settings: (μM)=Km app
PDGFRB (PDGFR beta) = PDGFRB (PDGFR beta) (Homo sapiens, UniProt P09619); settings: (μM)=Km app
PIM2 = PIM2 (Homo sapiens, UniProt Q9P1W9); settings: (μM)=Km app
PRKACA (PKA) = PRKACA (PKA) (Homo sapiens, UniProt P17612); settings: (μM)=Km app

Sequence of MAPK14 (p38 alpha) (Q16539 whole entry): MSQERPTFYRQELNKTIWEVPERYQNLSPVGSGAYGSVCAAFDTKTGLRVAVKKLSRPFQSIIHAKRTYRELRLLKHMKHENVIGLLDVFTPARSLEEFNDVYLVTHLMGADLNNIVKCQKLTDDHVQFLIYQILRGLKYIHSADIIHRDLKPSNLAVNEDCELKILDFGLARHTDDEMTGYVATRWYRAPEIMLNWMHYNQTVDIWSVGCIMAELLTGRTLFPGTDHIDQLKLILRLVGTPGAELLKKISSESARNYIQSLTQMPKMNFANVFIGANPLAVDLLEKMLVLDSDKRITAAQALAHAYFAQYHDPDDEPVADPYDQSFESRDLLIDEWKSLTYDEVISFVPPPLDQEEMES
Sequence of PDGFRB (PDGFR beta) (P09619 whole entry): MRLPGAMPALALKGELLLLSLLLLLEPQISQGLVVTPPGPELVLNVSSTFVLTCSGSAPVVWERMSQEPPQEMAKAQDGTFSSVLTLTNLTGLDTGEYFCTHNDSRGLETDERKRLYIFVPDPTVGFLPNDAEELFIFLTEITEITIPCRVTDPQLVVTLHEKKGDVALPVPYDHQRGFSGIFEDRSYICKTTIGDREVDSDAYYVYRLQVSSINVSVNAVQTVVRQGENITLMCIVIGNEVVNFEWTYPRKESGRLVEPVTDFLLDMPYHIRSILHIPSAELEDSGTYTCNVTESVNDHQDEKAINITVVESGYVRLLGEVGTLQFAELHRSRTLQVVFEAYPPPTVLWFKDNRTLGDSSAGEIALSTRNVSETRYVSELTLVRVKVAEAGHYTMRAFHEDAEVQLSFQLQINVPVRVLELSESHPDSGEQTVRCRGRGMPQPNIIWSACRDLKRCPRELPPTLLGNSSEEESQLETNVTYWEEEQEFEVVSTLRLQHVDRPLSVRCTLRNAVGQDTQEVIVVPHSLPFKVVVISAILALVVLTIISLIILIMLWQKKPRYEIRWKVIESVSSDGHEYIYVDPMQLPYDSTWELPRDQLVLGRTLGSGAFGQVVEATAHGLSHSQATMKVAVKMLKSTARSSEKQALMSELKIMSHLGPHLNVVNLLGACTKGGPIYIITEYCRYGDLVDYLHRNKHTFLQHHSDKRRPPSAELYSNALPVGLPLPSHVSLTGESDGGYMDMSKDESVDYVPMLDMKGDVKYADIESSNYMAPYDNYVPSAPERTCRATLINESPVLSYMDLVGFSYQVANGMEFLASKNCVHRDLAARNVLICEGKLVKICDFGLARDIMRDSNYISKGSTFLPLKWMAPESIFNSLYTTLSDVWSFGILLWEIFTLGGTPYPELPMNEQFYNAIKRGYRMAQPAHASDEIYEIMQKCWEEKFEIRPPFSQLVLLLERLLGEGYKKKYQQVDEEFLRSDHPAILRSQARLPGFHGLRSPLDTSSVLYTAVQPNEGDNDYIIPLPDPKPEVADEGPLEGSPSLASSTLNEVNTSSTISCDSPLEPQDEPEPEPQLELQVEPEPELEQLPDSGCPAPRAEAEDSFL
Sequence of CSK (P41240 whole entry): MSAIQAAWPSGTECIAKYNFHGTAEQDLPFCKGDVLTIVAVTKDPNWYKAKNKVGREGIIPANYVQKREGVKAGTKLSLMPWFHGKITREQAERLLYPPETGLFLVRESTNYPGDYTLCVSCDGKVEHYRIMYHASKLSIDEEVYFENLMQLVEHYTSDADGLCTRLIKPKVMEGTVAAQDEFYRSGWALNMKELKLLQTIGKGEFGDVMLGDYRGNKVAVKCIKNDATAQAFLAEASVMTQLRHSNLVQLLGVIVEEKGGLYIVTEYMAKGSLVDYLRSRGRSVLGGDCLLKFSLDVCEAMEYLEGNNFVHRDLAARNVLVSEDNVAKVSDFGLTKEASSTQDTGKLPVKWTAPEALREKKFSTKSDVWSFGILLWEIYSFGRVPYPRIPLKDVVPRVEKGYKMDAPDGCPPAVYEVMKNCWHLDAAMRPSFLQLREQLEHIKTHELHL
Sequence of PIM2 (Q9P1W9 whole entry): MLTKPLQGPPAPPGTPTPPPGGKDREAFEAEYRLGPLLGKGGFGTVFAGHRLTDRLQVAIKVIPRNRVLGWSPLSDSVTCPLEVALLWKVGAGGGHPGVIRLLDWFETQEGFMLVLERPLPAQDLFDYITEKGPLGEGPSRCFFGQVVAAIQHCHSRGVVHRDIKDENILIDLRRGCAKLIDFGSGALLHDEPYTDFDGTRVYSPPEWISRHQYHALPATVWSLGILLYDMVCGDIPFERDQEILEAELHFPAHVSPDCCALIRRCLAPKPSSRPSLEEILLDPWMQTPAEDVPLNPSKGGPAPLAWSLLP
Sequence of EGFR (ErbB1) (P00533 whole entry): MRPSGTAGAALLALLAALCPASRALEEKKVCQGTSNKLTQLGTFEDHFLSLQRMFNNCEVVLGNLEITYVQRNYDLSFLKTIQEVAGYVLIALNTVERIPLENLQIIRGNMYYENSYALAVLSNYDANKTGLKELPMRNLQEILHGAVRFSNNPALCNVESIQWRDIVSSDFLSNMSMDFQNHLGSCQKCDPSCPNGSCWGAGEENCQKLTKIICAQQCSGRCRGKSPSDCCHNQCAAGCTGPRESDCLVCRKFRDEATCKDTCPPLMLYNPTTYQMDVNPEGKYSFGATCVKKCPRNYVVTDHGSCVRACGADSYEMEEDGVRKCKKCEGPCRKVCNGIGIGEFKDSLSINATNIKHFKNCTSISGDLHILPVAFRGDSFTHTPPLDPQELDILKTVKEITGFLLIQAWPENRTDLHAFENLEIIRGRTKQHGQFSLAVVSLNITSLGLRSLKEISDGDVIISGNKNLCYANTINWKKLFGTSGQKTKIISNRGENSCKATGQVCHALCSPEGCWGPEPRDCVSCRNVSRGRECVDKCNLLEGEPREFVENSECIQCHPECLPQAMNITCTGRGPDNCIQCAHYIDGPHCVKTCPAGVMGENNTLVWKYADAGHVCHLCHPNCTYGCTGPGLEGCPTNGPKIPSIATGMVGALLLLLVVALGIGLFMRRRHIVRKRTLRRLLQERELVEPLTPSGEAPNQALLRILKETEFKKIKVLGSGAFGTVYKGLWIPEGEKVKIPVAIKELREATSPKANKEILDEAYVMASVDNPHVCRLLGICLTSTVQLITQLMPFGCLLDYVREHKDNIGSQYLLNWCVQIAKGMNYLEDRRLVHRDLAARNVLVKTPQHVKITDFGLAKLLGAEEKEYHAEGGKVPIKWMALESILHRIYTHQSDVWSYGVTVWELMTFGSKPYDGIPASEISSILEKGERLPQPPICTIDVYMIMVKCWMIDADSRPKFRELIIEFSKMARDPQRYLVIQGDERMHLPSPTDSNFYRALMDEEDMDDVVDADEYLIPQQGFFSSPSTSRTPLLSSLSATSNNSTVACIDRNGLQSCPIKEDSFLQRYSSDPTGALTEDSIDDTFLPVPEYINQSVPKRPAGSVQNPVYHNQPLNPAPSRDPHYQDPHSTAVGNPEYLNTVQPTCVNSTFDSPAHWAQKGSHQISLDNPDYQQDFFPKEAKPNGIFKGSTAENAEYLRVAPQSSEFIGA
Sequence of PAK2 (PAK65) (Q13177 whole entry): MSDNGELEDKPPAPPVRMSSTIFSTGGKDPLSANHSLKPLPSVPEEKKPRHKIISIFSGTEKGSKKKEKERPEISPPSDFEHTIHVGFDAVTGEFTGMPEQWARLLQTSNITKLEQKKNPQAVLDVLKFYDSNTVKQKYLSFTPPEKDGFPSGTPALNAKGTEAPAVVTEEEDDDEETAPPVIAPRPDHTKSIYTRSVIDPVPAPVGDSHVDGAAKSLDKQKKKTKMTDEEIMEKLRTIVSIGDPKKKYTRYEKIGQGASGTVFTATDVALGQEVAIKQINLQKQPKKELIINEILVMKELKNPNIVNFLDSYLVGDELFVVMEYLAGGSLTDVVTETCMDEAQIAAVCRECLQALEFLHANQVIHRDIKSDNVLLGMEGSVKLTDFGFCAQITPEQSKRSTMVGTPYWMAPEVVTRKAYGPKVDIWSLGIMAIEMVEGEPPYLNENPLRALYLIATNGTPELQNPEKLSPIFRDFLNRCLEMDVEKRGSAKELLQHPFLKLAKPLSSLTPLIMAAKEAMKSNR
Sequence of CSNK1D (CK1 delta) (P48730 whole entry): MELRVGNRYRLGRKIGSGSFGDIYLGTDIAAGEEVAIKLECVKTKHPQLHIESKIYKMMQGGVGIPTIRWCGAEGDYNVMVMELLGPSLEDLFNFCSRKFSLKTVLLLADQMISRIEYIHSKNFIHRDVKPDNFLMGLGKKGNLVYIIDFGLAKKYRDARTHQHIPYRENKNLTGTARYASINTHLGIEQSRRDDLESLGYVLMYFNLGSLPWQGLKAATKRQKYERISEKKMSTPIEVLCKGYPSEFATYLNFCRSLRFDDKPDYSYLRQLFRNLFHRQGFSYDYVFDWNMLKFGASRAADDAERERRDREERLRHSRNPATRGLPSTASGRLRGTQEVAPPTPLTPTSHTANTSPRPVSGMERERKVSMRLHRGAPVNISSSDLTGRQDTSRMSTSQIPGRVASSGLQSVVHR
Sequence of AURKB (Aurora B) (Q96GD4 whole entry): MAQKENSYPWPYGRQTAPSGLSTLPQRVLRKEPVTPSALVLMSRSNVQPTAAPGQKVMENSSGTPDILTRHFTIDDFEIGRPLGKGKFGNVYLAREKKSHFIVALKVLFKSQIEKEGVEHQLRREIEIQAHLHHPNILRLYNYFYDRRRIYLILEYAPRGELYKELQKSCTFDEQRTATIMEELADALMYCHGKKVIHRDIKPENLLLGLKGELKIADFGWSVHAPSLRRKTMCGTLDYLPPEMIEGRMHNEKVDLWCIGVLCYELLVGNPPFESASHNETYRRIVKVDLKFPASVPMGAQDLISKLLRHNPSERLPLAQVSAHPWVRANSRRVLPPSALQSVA

SMILES	inhibition at 1 µM (AURKB (Aurora B)) [%]	inhibition at 3 µM (AURKB (Aurora B)) [%]	inhibition at 10 µM (AURKB (Aurora B)) [%]	inhibition at 1 µM (CSK) [%]	inhibition at 3 µM (CSK) [%]	inhibition at 10 µM (CSK) [%]	inhibition at 1 µM (CSNK1D (CK1 delta)) [%]	inhibition at 3 µM (CSNK1D (CK1 delta)) [%]	inhibition at 10 µM (CSNK1D (CK1 delta)) [%]	inhibition at 1 µM (EGFR (ErbB1)) [%]	inhibition at 3 µM (EGFR (ErbB1)) [%]	inhibition at 10 µM (EGFR (ErbB1)) [%]	inhibition at 1 µM (IRAK4) [%]	inhibition at 3 µM (IRAK4) [%]	inhibition at 10 µM (IRAK4) [%]	inhibition at 1 µM (JAK3) [%]	inhibition at 3 µM (JAK3) [%]	inhibition at 10 µM (JAK3) [%]	inhibition at 1 µM (MAPK14 (p38 alpha)) [%]	inhibition at 3 µM (MAPK14 (p38 alpha)) [%]	other results
O=C(CSc1nc2nccnc2c(=O)n1CCc1ccccc1)Nc1nccs1 [compound 1, PITCOIN1]	-15.7	-5.68	-10.8	3.79	4.7	4.31	4.82	3.36	10	2.09	1.39	-0.671	10.7	2.87	6.89	-0.818	-2.14	0.865	-3.25	-1.99	inhibition at 10 µM (MAPK14 (p38 alpha)): -0.632%; inhibition at 1 µM (PAK2 (PAK65)): 2.87%; inhibition at 3 µM (PAK2 (PAK65)): -3.37%; inhibition at 10 µM (PAK2 (PAK65)): 3.3%; inhibition at 1 µM (PDGFRB (PDGFR beta)): -2.01%; inhibition at 3 µM (PDGFRB (PDGFR beta)): -3.23%; inhibition at 10 µM (PDGFRB (PDGFR beta)): 6.51%; inhibition at 1 µM (PIM2): -5.29%; inhibition at 3 µM (PIM2): -3.77%; inhibition at 10 µM (PIM2): -7.86%; inhibition at 1 µM (PRKACA (PKA)): 9.73%; inhibition at 3 µM (PRKACA (PKA)): 5.23%; inhibition at 10 µM (PRKACA (PKA)): 4.58%
CS(=O)(=O)Nc1cccc(-c2csc(NC(=O)CSc3nc4nccnc4c(=O)n3CCc3ccccc3)n2)c1 [compound 3, PITCOIN3]	-3.65	2.11	6.27	9.48	7.4	6.13	5.88	7.07	7.02	-2.95	6.63	0.555	15.2	4.2	9.92	1.86	-1.56	-1.58	1.55	6.76	inhibition at 10 µM (MAPK14 (p38 alpha)): 2.67%; inhibition at 1 µM (PAK2 (PAK65)): 4.79%; inhibition at 3 µM (PAK2 (PAK65)): 5.93%; inhibition at 10 µM (PAK2 (PAK65)): 0.538%; inhibition at 1 µM (PDGFRB (PDGFR beta)): 4.69%; inhibition at 3 µM (PDGFRB (PDGFR beta)): -3.18%; inhibition at 10 µM (PDGFRB (PDGFR beta)): 1.91%; inhibition at 1 µM (PIM2): -0.888%; inhibition at 3 µM (PIM2): -5.98%; inhibition at 10 µM (PIM2): -4.75%; inhibition at 1 µM (PRKACA (PKA)): 9.77%; inhibition at 3 µM (PRKACA (PKA)): 8.29%; inhibition at 10 µM (PRKACA (PKA)): 5.74%
